Patent publication US20240300923A1, “IRAK4 Inhibitors” (ASTRAZENECA AB, priority 2022, published 2024)

Tests used:
IRAK4 [1] = molecular target: T1, IRAK4 (Homo sapiens (Human), UniProt Q9NWZ3); experiment: IRAK4 enzyme assay (mass spectrometry readout); format: biochemical; settings: human recombinant IRAK4 0.2 nM, 3 mM ATP; geometric mean of at least 2 experiments
Experimental: Potency of IRAK4 Inhibitor Compounds in IRAK4 Enzyme Assay
The inhibitory activity of compounds against IRAK4 were determined in an enzymatic assay using mass spectrometry readout. Ten point half-log compound concentration response curves, with a top concentration of 1 μM or 10 μM, were generated from 10 mM stocks of compound solubilized in DMSO using an Echo 655 (Labcyte Inc) and added to 384 well assay plates (Greiner #781280). To the assay plates, 10 μL of human recombinant IRAK4 protein (Life Technologies #PV4002) diluted to a final concentration of 0.2 nM in assay buffer (50 mM Tris-HCl pH 7.4, 10 mM MgCl, 5 mM glutathione, 0.01% BSA, 3 mM ATP) was added. The enzyme was incubated with the compounds at room temperature for 15 minutes before a peptide substrate ([…], Innovagen custom synthesis, 10 mM in DMSO) was added to each well to a final concentration of 10 μM using an Echo 655 (Labcyte Inc). After two hours at room temperature, the reaction was stopped with 65 μL of 0.4% formic acid (Merck #33015). The unphosphorylated and phosphorylated peptide were measured by LC-MS/MS on a Waters TQ-S mass spectrometer. Peaks were integrated using the TargetLynx software and the ratios between phosphorylated and unphosphorylated peptides were calculated. Curves were fitted and compound potencies determined in Genedata Screener 19 (Genedata AG). IC50 values are the geometric mean of at least 2 experiments.

human cKit kinase = human cKit kinase (Homo sapiens (Human), UniProt P10721); experiment: cKit enzyme assay (LANCE, Eurofins CEREP); format: biochemical; settings: human recombinant enzyme, 50 μM ATP; geometric mean of at least n=2, * = single experiment
human cKit kinase, sequence (P10721 26-976): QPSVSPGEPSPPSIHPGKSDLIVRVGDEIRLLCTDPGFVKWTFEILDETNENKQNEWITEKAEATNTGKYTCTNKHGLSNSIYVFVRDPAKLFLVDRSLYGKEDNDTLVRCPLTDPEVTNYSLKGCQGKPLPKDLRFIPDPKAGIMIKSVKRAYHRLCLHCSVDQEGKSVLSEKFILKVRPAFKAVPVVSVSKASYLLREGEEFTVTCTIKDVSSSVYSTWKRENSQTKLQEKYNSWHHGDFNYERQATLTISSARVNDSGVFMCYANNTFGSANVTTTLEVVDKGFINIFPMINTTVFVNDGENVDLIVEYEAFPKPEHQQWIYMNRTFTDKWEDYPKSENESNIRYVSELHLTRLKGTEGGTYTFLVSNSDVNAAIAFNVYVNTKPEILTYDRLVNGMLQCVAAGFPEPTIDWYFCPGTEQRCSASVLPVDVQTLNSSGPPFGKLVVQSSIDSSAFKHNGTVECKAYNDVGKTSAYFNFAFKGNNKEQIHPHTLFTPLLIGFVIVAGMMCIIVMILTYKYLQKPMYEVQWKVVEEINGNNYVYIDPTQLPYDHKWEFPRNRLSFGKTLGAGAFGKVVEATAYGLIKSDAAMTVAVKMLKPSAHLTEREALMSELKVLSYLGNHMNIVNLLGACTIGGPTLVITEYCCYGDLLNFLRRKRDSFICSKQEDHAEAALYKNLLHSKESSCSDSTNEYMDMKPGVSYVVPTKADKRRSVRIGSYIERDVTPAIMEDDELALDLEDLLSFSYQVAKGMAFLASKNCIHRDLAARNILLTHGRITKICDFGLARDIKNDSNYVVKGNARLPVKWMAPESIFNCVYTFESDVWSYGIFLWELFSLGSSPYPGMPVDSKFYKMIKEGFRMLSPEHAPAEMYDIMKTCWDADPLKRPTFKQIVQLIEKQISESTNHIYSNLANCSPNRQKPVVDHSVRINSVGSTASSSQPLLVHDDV
Experimental: Potency of IRAK4 Inhibitor Compounds in cKit Enzyme Assay
Evaluation of the effects of the IRAK4 inhibitor compounds on the activity of the human cKit kinase quantified by measuring the phosphorylation of the substrate Ulight-TK peptide using a human recombinant enzyme and the LANCE® detection method at Eurofins CEREP, catalog item 3070, SOP no 1C768: The test compound, reference compound or water (control) are mixed with the enzyme (0.38 ng) in a buffer containing 40 mM Hepes/Tris (pH 7.4), 0.8 mM EGTA/Tris, 8 mM MgCl2, 1.6 mM DTT and 0.008% Tween 20. Thereafter, the reaction is initiated by adding 100 nM of the substrate Ulight-TK peptide and 50 μM ATP, and the mixture is incubated for 30 min at room temperature. For control basal measurements, the enzyme is omitted from the reaction mixture. Following incubation, the reaction is stopped by adding 13 mM EDTA. After 5 min, the anti-phopho-PT66 antibody labeled with europium chelate is added. After 60 more min, the fluorescence transfer is measured at lex=337 nm, lem=620 nm and lem=665 nm using a microplate reader (Envision, Perkin Elmer). The enzyme activity is determined by dividing the signal measured at 665 nm by that measured at 620 nm (ratio). The results are expressed as a percent inhibition of the control enzyme activity. The standard inhibitory reference compound is staurosporine, which is tested in each experiment at several concentrations to obtain an inhibition curve from which its IC50 value is calculated.
Data presented are the geometric mean of at least n=2, or as denoted by an*are obtained from a single experiment. […] Kinase selectivity can be a key determinant of clinical utility as off target toxicity can be reduced or eliminated.

IRAK4 [2] = molecular target: T1, IRAK4; experiment: IRAK4 phosphorylation cell assay (IL-1β-stimulated Karpas-299 cells); format: cell-based; settings: IRAK4 auto-phosphorylation (pIRAK4 Thr345/Ser346) in IL-1β-stimulated Karpas-299 cells; geometric mean of at least 2 experiments
Experimental: IRAK4 Phosphorylation Cell Assay
The activation of IRAK4 by TLR or IL-1R ligands leads to IRAK4 auto-phosphorylation, which can be prevented by IRAK4 kinase inhibitors. The effect of IRAK4 inhibitor compounds on IRAK4 auto-phosphorylation was assessed in IL-1β-stimulated Karpas-299 cells as a measurement of cellular potency. Karpas-299 cells were cultured in RPMI 1640 (Gibco 61870-010) containing 10% FBS (Gibco #10270). Cells were plated at 2×10^4 cells per well in poly-D-lysine coated 384 well plates (Corning #356663) to which compounds had been added at various concentrations (10 point half log dose response with a final top concentration of 30 μM) using an Echo 655 (Labcyte Inc). Cells were centrifuged (250 g, 4 mins), incubated at 37° C. for 1 h, then stimulated with 22.7 ng/mL recombinant IL-1β (R&D Systems, #201-LB-025) at 37° C. for 10 mins, followed by fixation in 4% paraformaldehyde for 20 mins and permeabilization in ice-cold 70% MeOH in PBS for 30 mins. Cells were washed twice with phosphate-buffered saline (PBS) on a BlueWasher (BlueCatBio) then blocked with PBS containing 10% FBS for 20 mins. Blocking solution was removed with a BlueWasher and cells were stained with anti-pIRAK4 (Thr345/Ser346) (CST, #11927, 1:400) in blocking buffer with 0.05% Tween-20 for 1 h, then washed twice with PBS containing 0.05% Tween-20 on a BlueWasher, followed by staining with a Alexa 647-conjugated secondary anti-rabbit IgG antibody (CST, #4414, 1:2,000) and Hoechst 33342 (Sigma, 1:2,000) in blocking buffer with 0.05% Tween-20 for 30 mins. Finally, the cells were washed twice with PBS containing 0.05% Tween-20 and imaged on an ImageXpress Micro (Molecular Devices) with a 10× air objective using the appropriate filters. Images were analysed in Columbus (PerkinElmer) and the fluorescence intensity per cell from the secondary antibody was quantified. The quantified data were analysed in Genedata Screener 19 (Genedata AG). […] IC50 values are the geometric mean of at least 2 experiments.

T1 sequence (Q9NWZ3 whole entry): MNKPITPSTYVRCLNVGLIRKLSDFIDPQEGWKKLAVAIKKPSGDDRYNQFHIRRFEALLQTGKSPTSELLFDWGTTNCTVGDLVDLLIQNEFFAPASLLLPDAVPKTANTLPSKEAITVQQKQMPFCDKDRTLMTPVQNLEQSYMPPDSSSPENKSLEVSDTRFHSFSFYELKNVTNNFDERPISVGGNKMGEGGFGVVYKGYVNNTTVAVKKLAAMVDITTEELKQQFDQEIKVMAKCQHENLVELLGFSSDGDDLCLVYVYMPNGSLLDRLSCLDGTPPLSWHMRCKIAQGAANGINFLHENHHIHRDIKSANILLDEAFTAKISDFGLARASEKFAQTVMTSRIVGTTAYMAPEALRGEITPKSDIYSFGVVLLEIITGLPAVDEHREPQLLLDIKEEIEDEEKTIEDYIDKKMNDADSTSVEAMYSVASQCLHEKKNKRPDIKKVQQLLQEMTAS

Row | Structure (SMILES) | IC50 (IRAK4 [1]) | IC50 (human cKit kinase) | IC50 (IRAK4 [2])
1 | COc1cc2nn([C@H]3CC[C@H](N(C)C(=O)[C@@H](C)O)CC3)cc2cc1C(=O)Nc1cccn(C2CC2)c1=O [Example 12, N-(1-Cyclopropyl-2-oxo-1,2-dihydropyridin-3-yl)-2-((1R,4r)-4-((R)-2-hydroxy-N-methylpropanamido)cyclohexyl)-6-methoxy-2H-indazole-5-carboxamide] | 0.0006 µM | 58.2 µM | 0.024 µM
2 | COc1cc2nn([C@H]3CC[C@H](N(C)C(=O)[C@@H](C)O)CC3)cc2cc1C(=O)Nc1cccn(C2COC2)c1=O [Example 13, 2-((1R,4r)-4-((R)-2-Hydroxy-N-methylpropanamido)cyclohexyl)-6-methoxy-N-(1-(oxetan-3-yl)-2-oxo-1,2-dihydropyridin-3-yl)-2H-indazole-5-carboxamide] | 0.0007 µM | > 50 µM | 0.03 µM
3 | COc1cc2nn([C@H]3CC[C@H](N(C)C(=O)[C@@H](C)O)CC3)cc2cc1C(=O)Nc1cccn(-c2cnn(C)c2)c1=O [Example 15, 2-((1R,4r)-4-((R)-2-Hydroxy-N-methylpropanamido)cyclohexyl)-6-methoxy-N-(1-(1-methyl-1H-pyrazol-4-yl)-2-oxo-1,2-dihydropyridin-3-yl)-2H-indazole-5-carboxamide] | 0.0009 µM | 2.7 µM | 0.035 µM
4 | COc1cc2nn([C@H]3CC[C@H](N(C)C(=O)[C@@H](C)O)CC3)cc2cc1C(=O)Nc1cccn(-c2cn(C)nn2)c1=O [Example 16, 2-((1R,4r)-4-((R)-2-Hydroxy-N-methylpropanamido)cyclohexyl)-6-methoxy-N-(1-(1-methyl-1H-1,2,3-triazol-4-yl)-2-oxo-1,2-dihydropyridin-3-yl)-2H-indazole-5-carboxamide] | 0.001 µM | 1.4 µM | 0.033 µM
5 | COc1cc2nn([C@H]3CC[C@H](N(C)C(=O)[C@@H](C)O)CC3)cc2cc1C(=O)Nc1cccn(-c2cnn(C)n2)c1=O [Example 17, 2-((1R,4r)-4-((R)-2-Hydroxy-N-methylpropanamido)cyclohexyl)-6-methoxy-N-(1-(2-methyl-2H-1,2,3-triazol-4-yl)-2-oxo-1,2-dihydropyridin-3-yl)-2H-indazole-5-carboxamide] | 0.0011 µM | > 100 µM | 0.034 µM
6 | COc1cc2nn([C@H]3CC[C@H](N4CCCC4=O)CC3)cc2cc1C(=O)Nc1cccn(C)c1=O [Example 18, 6-Methoxy-N-(1-methyl-2-oxo-1,2-dihydropyridin-3-yl)-2-((1r,4r)-4-(2-oxopyrrolidin-1-yl)cyclohexyl)-2H-indazole-5-carboxamide] | 0.001 µM | 2.4 µM | 0.032 µM
7 | COc1cc2nn([C@H]3CC[C@H](N4CCN(C)C4=O)CC3)cc2cc1C(=O)Nc1cccn(C)c1=O [Example 19, 6-Methoxy-N-(1-methyl-2-oxo-1,2-dihydropyridin-3-yl)-2-((1r,4r)-4-(3-methyl-2-oxoimidazolidin-1-yl)cyclohexyl)-2H-indazole-5-carboxamide] | 0.0009 µM | 10.6 µM | 0.034 µM
8 | COc1cc2nn([C@H]3CC[C@H](n4ccccc4=O)CC3)cc2cc1C(=O)Nc1cccn(C)c1=O [Example 22, 6-Methoxy-N-(1-methyl-2-oxo-1,2-dihydropyridin-3-yl)-2-((1r,4r)-4-(2-oxopyridin-1(2H)-yl)cyclohexyl)-2H-indazole-5-carboxamide] | 0.0005 µM | 26.2 µM | 0.026 µM
9 | COc1cc2nn([C@H]3CC[C@H](c4nnco4)CC3)cc2cc1C(=O)Nc1cccn(C)c1=O [Example 25, 2-((1r,4r)-4-(1,3,4-Oxadiazol-2-yl)cyclohexyl)-6-methoxy-N-(1-methyl-2-oxo-1,2-dihydropyridin-3-yl)-2H-indazole-5-carboxamide] | 0.0017 µM | > 100 µM | 0.045 µM
